The text below walks through data of PubChem BioAssay AID248 (DTP/NCI, 2004).

SMILES strings stand for the structures. Inconclusive results and toxic doses are left out.

This assay deals with L1210 leukemia ip in BDF1 mice, survival T/C. In words: NCI In Vivo Anticancer Drug Screen. Data for tumor model L1210 Leukemia (intraperitoneal) in B6D2F1 (BDF1) mice. To be noted: endpoint: mean survival time, higher = longer survival. The procedure, abridged:
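Survival endpoint. Drug-treated group vs vehicle group, expressed as T divided by C. Tumor passaged by transplantation.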

Where [1] appears, read: dose: 100.0 mg/kg/injection, schedule: Q01DX001 (ip), vehicle: saline.
Setting [2] is: dose: 200.0 mg/kg/injection, schedule: Q01DX001 (ip), vehicle: saline.
The mark [3] stands for this setting: dose: 100.0 mg/kg/injection, schedule: Q04DX003 (ip), vehicle: saline with Tween-80.
Setting [4] is: dose: 200.0 mg/kg/injection, schedule: Q04DX003 (ip), vehicle: saline with Tween-80.
The mark [5] stands for this setting: dose: 400.0 mg/kg/injection, schedule: Q04DX003 (ip), vehicle: saline with Tween-80.
Where [6] appears, read: dose: 50.0 mg/kg/injection, schedule: Q01DX001 (ip), vehicle: other.
Setting [7] is: dose: 100.0 mg/kg/injection, schedule: Q01DX001 (ip), vehicle: other.
Where [8] appears, read: dose: 200.0 mg/kg/injection, schedule: Q01DX001 (ip), vehicle: other.
The mark [9] stands for this setting: dose: 400.0 mg/kg/injection, schedule: Q01DX001 (ip), vehicle: other.
[10] abbreviates: dose: 25.0 mg/kg/injection, schedule: Q04DX003 (ip), vehicle: Klucel (hydroxypropylcellulose) (HPC).
Where [11] appears, read: dose: 50.0 mg/kg/injection, schedule: Q04DX003 (ip), vehicle: Klucel (hydroxypropylcellulose) (HPC).
Setting [12] is: dose: 400.0 mg/kg/injection, schedule: Q01DX001 (ip), vehicle: saline.
The mark [13] stands for this setting: dose: 100.0 mg/kg/injection, schedule: Q01DX001 (ip), vehicle: Klucel (hydroxypropylcellulose) (HPC).
Where [14] appears, read: dose: 100.0 mg/kg/injection, schedule: Q04DX003 (ip), vehicle: Klucel (hydroxypropylcellulose) (HPC).
The mark [15] stands for this setting: dose: 200.0 mg/kg/injection, schedule: Q01DX001 (ip), vehicle: Klucel (hydroxypropylcellulose) (HPC).
The mark [16] stands for this setting: dose: 200.0 mg/kg/injection, schedule: Q04DX003 (ip), vehicle: Klucel (hydroxypropylcellulose) (HPC).
The mark [17] stands for this setting: dose: 400.0 mg/kg/injection, schedule: Q04DX003 (ip), vehicle: Klucel (hydroxypropylcellulose) (HPC).

Turning to `Cc1c(C(=O)O)[nH]c(=O)[nH]c1=O`, the T/C was 90 % of control (dose: 100.0 mg/kg/injection, schedule: Q01DX Z (ip), vehicle: methylcellulose (MC)) and 97 % of control (dose: 200.0 mg/kg/injection, schedule: Q01DX Z (ip), vehicle: methylcellulose (MC)).
As for `Nc1ccc(N=Nc2ccc(O)cc2)c(N)n1`, the T/C is, setting by setting: under setting [1], 92 % of control; under setting [2], 107 % of control.
Consider `Nc1n[nH]c(=S)n1-c1ccc(Cl)cc1`, for which the T/C reads like this: under setting [3], 88 % of control; under setting [4], 93 % of control; under setting [5], 93 % of control.
Take `O=S(=O)(c1ccc(Br)cc1)c1ccc(Br)cc1`: the T/C is 98 % of control under setting [3], 98 % of control under setting [4] and 104 % of control under setting [5].
Regarding `O=NN(CCCl)C(=O)NC1CS(=O)(=O)CS(=O)(=O)C1`, the T/C was 193 % of control (dose: 6.25 mg/kg/injection, schedule: Q01DX001 (ip), vehicle: other); 296 % of control (dose: 12.5 mg/kg/injection, schedule: Q01DX001 (ip), vehicle: other); 322 % of control (dose: 25.0 mg/kg/injection, schedule: Q01DX001 (ip), vehicle: other); 252 % of control under setting [6]; 117 % of control (dose: 75.0 mg/kg/injection, schedule: Q01DX001 (ip), vehicle: other).
Regarding `COc1cc(C(=O)N2CCN(c3ccccc3)CC2)c2ccccc2n1`, the T/C reads like this: under setting [7], 98 % of control; under setting [8], 112 % of control; under setting [9], 101 % of control.
Turning to `C[N+](C)(C)CSc1ccccc1-n1cccc1`, the T/C is 112 % of control (dose: 12.5 mg/kg/injection, schedule: Q01DX009 (ip), vehicle: Klucel (hydroxypropylcellulose) (HPC)); 103 % of control (dose: 12.5 mg/kg/injection, schedule: Q04DX003 (ip), vehicle: Klucel (hydroxypropylcellulose) (HPC)); 103 % of control (dose: 25.0 mg/kg/injection, schedule: Q01DX009 (ip), vehicle: Klucel (hydroxypropylcellulose) (HPC)); 92 % of control under setting [10]; 110 % of control (dose: 50.0 mg/kg/injection, schedule: Q01DX009 (ip), vehicle: Klucel (hydroxypropylcellulose) (HPC)); 97 % of control under setting [11].
For the compound `O=C(CCl)NCc1ccc(Cl)cc1`, the T/C under setting [6] was 102 % of control, the T/C under setting [7] is 93 % of control and the T/C under setting [8] was 102 % of control.
`CCCCOP(=O)(Cc1ccc(Cl)c(Cl)c1)OCCCC`: the T/C (dose: 100.0 mg/kg/injection, schedule: Q04DX002 (sc), vehicle: olive oil, sesame oil, peanut oil) was 98 % of control; the T/C (dose: 200.0 mg/kg/injection, schedule: Q04DX002 (sc), vehicle: olive oil, sesame oil, peanut oil) was 102 % of control; the T/C (dose: 400.0 mg/kg/injection, schedule: Q04DX002 (sc), vehicle: olive oil, sesame oil, peanut oil) was 98 % of control.
Take `COC1OC2COC(c3ccccc3)OC2C(OS(=O)(=O)c2ccc(C)cc2)C1OC` (centres undefined): the T/C is 107 % of control (dose: 100.0 mg/kg/injection, schedule: Q04DX002 (ip), vehicle: saline with Tween-80); 89 % of control (dose: 200.0 mg/kg/injection, schedule: Q04DX002 (ip), vehicle: saline with Tween-80); 93 % of control (dose: 400.0 mg/kg/injection, schedule: Q04DX002 (ip), vehicle: saline with Tween-80).
Regarding `Clc1ccc(/C=N/Nc2nc3ccccc3s2)cc1Cl`, the T/C reads like this: (dose: 40.0 mg/kg/injection, schedule: Q01DX Z (ip), vehicle: methylcellulose (MC)) 88 % of control; (dose: 60.0 mg/kg/injection, schedule: Q01DX Z (ip), vehicle: methylcellulose (MC)) 103 % of control; (dose: 90.0 mg/kg/injection, schedule: Q01DX Z (ip), vehicle: methylcellulose (MC)) 94 % of control.
As to `O=C(O)C(c1ccccc1)S(=O)(=O)C(C(=O)O)c1ccccc1` (centres undefined), the T/C reads like this: under setting [1], 95 % of control; under setting [2], 101 % of control; under setting [12], 95 % of control.
As for `Cc1ccc(C(=O)/C=C2/SS/C(=C/C(=O)c3ccc(C)cc3)S2)cc1`, the T/C under setting [11] is 100 % of control; the T/C under setting [13] is 92 % of control; the T/C under setting [14] is 97 % of control; the T/C under setting [15] was 95 % of control; the T/C under setting [16] was 106 % of control; the T/C (dose: 400.0 mg/kg/injection, schedule: Q01DX001 (ip), vehicle: Klucel (hydroxypropylcellulose) (HPC)) was 98 % of control. Also, under setting [17], the T/C is 110 % of control.
With `COc1ccccc1N=Nc1c(O)n(-c2ccccc2C)c(=S)n(-c2ccccc2OC)c1=O`, the T/C under setting [10] is 98 % of control; the T/C under setting [11] was 98 % of control; the T/C under setting [13] is 109 % of control; the T/C under setting [14] was 91 % of control; the T/C under setting [15] was 98 % of control.
Take `O=S(=O)(/C=C\c1ccccc1)CBr`: the T/C (dose: 100.0 mg/kg/injection, schedule: Q04DX002 (ip), vehicle: Klucel (hydroxypropylcellulose) (HPC)) is 100 % of control; the T/C (dose: 200.0 mg/kg/injection, schedule: Q04DX002 (ip), vehicle: Klucel (hydroxypropylcellulose) (HPC)) is 97 % of control; the T/C (dose: 400.0 mg/kg/injection, schedule: Q04DX002 (ip), vehicle: Klucel (hydroxypropylcellulose) (HPC)) was 106 % of control.
As to `C=CCN1C(=O)NC(=O)C1c1ccsc1` (centres undefined), the T/C runs as follows: under setting [1], 90 % of control; under setting [2], 93 % of control; under setting [12], 93 % of control.
`CCOC(=O)C(C)Nc1ccccc1` (centres undefined): the T/C (dose: 100.0 mg/kg/injection, schedule: Q01DX009 (ip), vehicle: Klucel (hydroxypropylcellulose) (HPC)) is 100 % of control; the T/C under setting [14] was 103 % of control; the T/C (dose: 200.0 mg/kg/injection, schedule: Q01DX009 (ip), vehicle: Klucel (hydroxypropylcellulose) (HPC)) was 104 % of control; the T/C under setting [16] was 118 % of control; the T/C (dose: 400.0 mg/kg/injection, schedule: Q01DX009 (ip), vehicle: Klucel (hydroxypropylcellulose) (HPC)) was 98 % of control; the T/C under setting [17] was 98 % of control.
For the compound `O=C(c1ccccc1)C(O)c1ccccc1` (centres undefined), the T/C runs as follows: (dose: 100.0 mg/kg/injection, schedule: Q01DX009 (ip), vehicle: saline with Tween-80) 89 % of control; (dose: 200.0 mg/kg/injection, schedule: Q01DX009 (ip), vehicle: saline with Tween-80) 94 % of control; (dose: 400.0 mg/kg/injection, schedule: Q01DX009 (ip), vehicle: saline with Tween-80) 100 % of control.
With `CCOP(=O)(Cc1ccc(N=Cc2cnc3nc(NC(C)=O)[nH]c(=O)c3n2)cc1)OCC`, the T/C was 98 % of control under setting [7], 105 % of control under setting [8] and 96 % of control under setting [9].
Take `O=C(O)c1cc2ccccc2c(Br)c1O.OC1CCCC2CCC[N-]C12.[Cu+]`: the T/C runs as follows: (dose: 4.0 mg/kg/injection, schedule: Q01DX015 (sc), vehicle: steriod suspending solution) 97 % of control; (dose: 16.0 mg/kg/injection, schedule: Q01DX015 (sc), vehicle: steriod suspending solution) 103 % of control; (dose: 32.0 mg/kg/injection, schedule: Q01DX015 (sc), vehicle: steriod suspending solution) 100 % of control; (dose: 50.0 mg/kg/injection, schedule: Q01DX001 (sc), vehicle: steriod suspending solution) 98 % of control; (dose: 100.0 mg/kg/injection, schedule: Q01DX001 (sc), vehicle: steriod suspending solution) 111 % of control.
Turning to `c1ccc(C2=C(c3ccccc3)CC2)cc1`, the T/C (dose: 50.0 mg/kg/injection, schedule: Q01DX001 (ip), vehicle: Klucel (hydroxypropylcellulose) (HPC)) is 104 % of control; the T/C under setting [13] was 98 % of control; the T/C under setting [15] was 108 % of control.
For the compound `CCC(C)(C(=O)NO)c1ccccc1` (centres undefined), the T/C is, setting by setting: (dose: 100.0 mg/kg/injection, schedule: Q01DX001 (ip), vehicle: saline with Tween-80) 110 % of control; (dose: 200.0 mg/kg/injection, schedule: Q01DX001 (ip), vehicle: saline with Tween-80) 101 % of control.
